3 compounds from patent publication US5461057A, “Hydro-ethano-indeno-pyridines” (priority 1994, dated 1995) can be followed below.

The subject of data set [1] is histamine-induced dyspnea. The data set is described as follows: Bronchodilator (in vivo) Guinea Pig Dyspnea. To be noted: oral, one hour before histamine challenge. A digest of the protocol:
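Fasted, unanesthetized guinea pigs (250-350 g) received the test drug orally one hour before exposure to an aerosolized 0.1% histamine solution. Onset of dyspnea was recorded, and data were expressed as number tested over number survived.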

The next data set is described as follows: MTT cytotoxicity assay. Type of data set: cell-based. To be noted: human, lox melanoma cells; for CC50 at 1 h: read-out: MTT 1 Hr LD50. The protocol:
LOX human melanoma cells, in RPMI medium with 2 mg/ml BSA and 25 mM HEPES, pH 7.4, were seeded at 4×10^4 cells/well in 96-well microtiter plates and grown overnight in a humidified 37° C. incubator. On the following day, the medium was aspirated and wells were washed once with 0.1 ml of DPBS. Compounds (0.1 ml) in DPBS were added to wells in quadruplicate at appropriate concentrations. The cells were then incubated with test compound for 1 hour at 37° C. Wells were aspirated and washed 2× with 0.1 ml DPBS. MTT [3-(4,5-Dimethylthiazol-2-yl)-2,5-diphenyltetrazolium bromide] (0.1 ml of 1 mg/ml solution in PBS from Sigma Chemical Co.) was added to each well and incubated for 2 hour at 37° C. MTT was aspirated and 0.1 ml of 50% N,N-dimethylformamide with 20% sodium dodecyl sulfate was added to each well. Plates were shaken for 10 minutes on a Titer-Plate shaker (Labline) at room temperature. Optical density was read at 570 nm with a plate-reading spectrophotometer (Dynatech MR5000).
On the technique in general: Tetrazolium dyes change colour on reduction, which living cells bring about.

Data set [2] deals with LOX human melanoma cell adhesion to human collagen I. Kind of data set: LOX cell adhesion to collagen I. The following applies: read-out: Collagen I IC50. Type of data set: cell-based. The protocol:
Adhesion assays were run essentially as described previously (Pai et al., J. Biomed. Res. 2: 53, 1992). 96-well plates were coated with human fibronectin (140 ng/well), human vitronectin (75 ng/well), human collagen I (100 ng/well), human collagen IV (100 ng/well), human fibrinogen (1 μg/well), murine laminin (600 ng/well), or polylysine, and incubated overnight in a humidified 37° C. incubator. Excess fibronectin or other substrate was then removed and 0.2 ml of 2 mg/ml bovine serum albumin (BSA)in Dulbecco's phosphate-buffered saline (DPBS) was added to each well, incubated for 2 hours at 37° C., and removed. LOX human melanoma cells, M27 murine lung carcinoma cells or B16F10 mouse melanoma cells were detached from tissue culture flasks with RPMI medium containing 0.2M urea and 10 mM EDTA, and 0.18 ml of cells were added to each well to a final cell concentration of 1×10^5 cells/well. For inhibition studies 20 μl of 10× compound was added to the wells prior to cell addition. Cells were allowed to adhere for 1 hour at 37° C. The wells were then gently washed twice with 0.2 ml DPBS. The fluorescent dye calcein AM (Molecular Probes, Eugene Oreg.) in DPBS (0.1 ml of 1 μM) was added to each well, and the plates were incubated for 1 hour at room temperature. Adherent cells were quantitated by reading the fluorescence on a Cytofluor 2300 fluorescent plate reader (Millipore) at 485 nm excitation and 530 nm emission.

The subject of data set [3] is acetic acid-induced writhing. Kind of data set: Acetic Acid Writhing Test in Mice. The class given is in vivo, mouse. The following applies: Mus musculus, po, read-out: WRITH ED50. A digest of the protocol:
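Writhing provoked by intraperitoneal acetic acid in mice, following the Hendershot and Koster procedures. Values are effective doses (ED50) in mg/kg.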
In general terms: Writhing tests count abdominal constrictions after an irritant is injected.

For the next data set, the system named is methamphetamine toxicity. The data set is described as follows: Methamphetamine toxicity test in mice. The class given is in vivo. The following applies: Mus musculus, read-out: METHA ED50. The protocol:
The methamphetamine toxicity test in mice was carried out as described in Burn et al, Arch. Int. Pharmacodyn 113:290-295, (1958); and Coscia et al, Arzneim-Forsch (Drug Research) 25:1436-1442, (1975); which are hereby incorporated by reference.
(§1) The results for this test are given below as ED50's in the units of mg/kg.
METHA refers to the methamphetamine toxicity test in mice;

Another data set relates to metrazole. The data set is described as follows: Anti-metrazole test in mice. The class given is in vivo, mouse. The following applies: Mus musculus, read-out: MTZ ED50. How it is done: The anti-metrazole test in mice was carried out as described in Everett et al, J. Pharmacol. Exp. Therap. 81:402-407 (1944); which is hereby incorporated by reference.
as §1

A further data set relates to PDGF receptor. Kind of data set: PDGF receptor binding assay.
The subject of a further data set is pulmonary resistance. The data set is described as follows: Pulmonary Resistance in the Anesthetized Rat. To be noted: 0.5 mpk, i.v.; mean of 5 animals; % decrease in pre-drug baseline resistance. The class given is in vivo. The procedure, abridged:
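Dialurethane-anesthetized rats (400-500 g) with tracheal and esophageal catheters; air flow and tracheal/esophageal pressures used to derive pulmonary resistance. Compounds given i.v. to 5 animals each; values are mean % decrease from pre-drug baseline resistance.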

One may read the IC50 as the midpoint of a concentration-inhibition curve. For the compound `CN1C2CCC1C1C(=C(c3ccc(Cl)cc3)c3ccccc31)C2` (centres unmarked) [C], in data set [1] (100 mg/kg), the DYSP survivors is reported as 0/3. The CC50 at 1 h in the data set “MTT cytotoxicity assay” was 95.1 µM. For the same compound, the IC50 in data set [2] was found to be 4 µM.
As a reminder, the ED50 is the dose that gives a 50% effect, or the effect in half of the subjects. With `COc1ccc(C2=C3CC4CCC(N4)C3c3ccccc32)cc1` (centres unmarked) [Compound B], the responders at 100 mg/kg in data set [1] (Cavia porcellus, 1 h, 100 mg/kg, read-out: DYSP survivors (converted)) was 0%. In addition, the ED50 (in data set [3]; in the data set with methamphetamine toxicity; with metrazole) was above 30 mg/kg in each case. In addition, the selectivity ratio at 1 h in “MTT cytotoxicity assay” (MTT, read-out: selectivity for blockade of fibronectin adhesion vs. cytotoxicity (MTT 1 hour)) worked out at 19. For the same compound, the CC50 at 1 h in the data set “MTT cytotoxicity assay” amounted to 97.6 µM. For the same compound, the IC50 in data set [2] is 6.7 µM. In addition, the “inhibition of PDGF binding” value with PDGF receptor is “not to inhibit PDGF binding directly”.
Take `Cc1ccc(C2=C3CC4CCC(C3c3ccccc32)N4C)cc1` (centres unmarked) [J]: the DYSP survivors in data set [1] (10 mg/kg) is reported as 0/3; in data set [1] (50 mg/kg), 1/3; in data set [1] (100 mg/kg), 3/3. The “Pulmonary Resistance in Rats, % Inhibition” value in the data set with pulmonary resistance turned out to be 35%. The CC50 at 1 h in the data set “MTT cytotoxicity assay” came to 54.6 µM. Besides, in data set [2], the IC50 was found to be 4.5 µM.
